The text below walks through data of US8280710B2, “Method for determining thermal stability of collagen or collagen-like peptide” (University of Medicine and Dentistry of New Jersey, priority 2005, dated 2012).

The conditions of data set [1]: peptide of Table 3, defined standard conditions. As for the experimental part:
The propensity measurements for all 20 amino acid residues in the Xaa1 position in a Gly-Xaa1-Hyp context and all 20 amino acid residues in the Xaa2 position in a Gly-Pro-Xaa2 context were determined by measuring thermal stability of host-guest peptides (Persikov, et al. (2000) supra).
The Tm values of all host-guest peptides were measured under a set of standard conditions, with c=1 mg/ml in phosphate-buffered saline, pH 7.0, and with a heating rate average of 0.1° C./minute (Persikov, et al. (2004) supra).

Data set [2] can be described thus: Method for predicting global Tm of collagen peptides from amino acid sequence. The conditions noted are these: observed minus predicted, peptides of Table 3. As for the experimental part: The global thermal stability of homotrimeric triple helical peptides with length of at least 6 tripeptide units and, in most cases, containing 10 tripeptide units was determined as follows.
For the total number of triplets n in a given peptide, the base Tm^0(n) for (Pro-Hyp-Gly) or (Pro-Pro-Gly)n was calculated from the length dependence (Equation 1), including any effect of blocking groups;
The melting temperature value was decreased for every triplet in the sequence that was not Gly-Pro-Hyp, subtracting a value of ΔTm^GXY (Table 1). The N-terminal and C-terminal tripeptide units were excluded from the calculation due to the staggering of the chains and the disorder for the peptide ends (Bella et al. (1994) supra; Li, et al. (1993) Biochemistry 32:7377-7387; Kramer, et al. (2001) J. Mol. Biol. 301:1191-1205).
The resulting value for the peptide melting temperature was adjusted using the ΔTm^int values for interactions between neighboring tripeptides (Table 2).
The method was formulated as follows.
To extrapolate the dependence of the Tm of the host peptides on peptide length, the experimental values for (Pro-Hyp-Gly)n and (Pro-Pro-Gly)n versus n, where n is the number of tripeptide units, were fit to the exponential decay function
[formula] where Tm^0(n) is defined as the base thermal stability of the repeating polytripeptide standard, Tm^max is the maximum melting temperature, and the constant n0 represents the length of the repeating peptide with Tm=0.

Non-standard residues stand in square brackets, D forms with d. Residues, ends and D or L forms follow the SMILES beside them. Hyp = O=C(O)[C@@H]1C[C@@H](O)CN1

`CC(=O)NCC(=O)N1CCC[C@H]1C(=O)N1C[C@H](O)C[C@H]1C(=O)NCC(=O)N1CCC[C@H]1C(=O)N1C[C@H](O)C[C@H]1C(=O)NCC(=O)N1CCC[C@H]1C(=O)N1C[C@H](O)C[C@H]1C(=O)NCC(=O)N[C@@H](CCCNC(=N)N)C(=O)N[C@@H](CCCCN)C(=O)NCC(=O)N[C@@H](CCCNC(=N)N)C(=O)N1C[C@H](O)C[C@H]1C(=O)NCC(=O)N1CCC[C@H]1C(=O)N1C[C@H](O)C[C@H]1C(=O)NCC(=O)N1CCC[C@H]1C(=O)N1C[C@H](O)C[C@H]1C(=O)NCC(=O)N1CCC[C@H]1C(=O)N1C[C@H](O)C[C@H]1C(=O)NCC(=O)NCC(N)=O` [AchE-HG-N1, Ac-GPO-GPO-GPO-GRK-GRO-GPO-GPO-GPO-GG-NH2] (Ac-GP[Hyp]GP[Hyp]GP[Hyp]GRKGR[Hyp]GP[Hyp]GP[Hyp]GP[Hyp]GG-NH2): the “Tm^obs” value in data set [1] stood at 22.2 °C. Moreover, in data set [2], the ΔTm (commonly the change in melting temperature against a reference sample) is −0.6 °C.
On the same counts, the results for `CC(=O)NCC(=O)N1CCC[C@H]1C(=O)N1C[C@H](O)C[C@H]1C(=O)NCC(=O)N1CCC[C@H]1C(=O)N1C[C@H](O)C[C@H]1C(=O)NCC(=O)N[C@@H](CCCNC(=N)N)C(=O)N1C[C@H](O)C[C@H]1C(=O)NCC(=O)N[C@@H](CCCNC(=N)N)C(=O)N[C@@H](CCCCN)C(=O)NCC(=O)N[C@@H](CCCNC(=N)N)C(=O)N1C[C@H](O)C[C@H]1C(=O)NCC(=O)N1CCC[C@H]1C(=O)N1C[C@H](O)C[C@H]1C(=O)NCC(=O)N1CCC[C@H]1C(=O)N1C[C@H](O)C[C@H]1C(=O)NCC(=O)N1CCC[C@H]1C(=O)N1C[C@H](O)C[C@H]1C(=O)NCC(=O)NCC(N)=O` [AchE-HG-N2, Ac-GPO-GPO-GRO-GRK-GRO-GPO-GPO-GPO-GG-NH2] (Ac-GP[Hyp]GP[Hyp]GR[Hyp]GRKGR[Hyp]GP[Hyp]GP[Hyp]GP[Hyp]GG-NH2) are 17.4 °C and 1.3 °C.
As to `CC(=O)NCC(=O)N1CCC[C@H]1C(=O)N1C[C@H](O)C[C@H]1C(=O)NCC(=O)N1CCC[C@H]1C(=O)N1C[C@H](O)C[C@H]1C(=O)NCC(=O)N[C@@H](CCCNC(=N)N)C(=O)N1C[C@H](O)C[C@H]1C(=O)NCC(=O)N[C@@H](CCCNC(=N)N)C(=O)N[C@@H](CCCCN)C(=O)NCC(=O)N[C@@H](CCCNC(=N)N)C(=O)N1C[C@H](O)C[C@H]1C(=O)NCC(=O)N1CCC[C@H]1C(=O)N1C[C@H](O)C[C@H]1C(=O)NCC(=O)N1CCC[C@H]1C(=O)N1C[C@H](O)C[C@H]1C(=O)NCC(=O)N1CCC[C@H]1C(=O)N1C[C@H](O)C[C@H]1C(=O)NCC(=O)N1CCC[C@H]1C(=O)N1C[C@H](O)C[C@H]1C(=O)NCC(=O)N1CCC[C@H]1C(=O)N1C[C@H](O)C[C@H]1C(=O)NCC(N)=O` [AchE-P126 (r), Ac-GPO-GPO-GRO-GRK-GRO-(GPO)5-G-NH2] (Ac-GP[Hyp]GP[Hyp]GR[Hyp]GRKGR[Hyp]GP[Hyp]GP[Hyp]GP[Hyp]GP[Hyp]GP[Hyp]G-NH2), the “Tm^obs” value in data set [1] is 30.0 °C. The ΔTm in data set [2] is −2.6 °C.
In the case of `CC(=O)NCC(=O)N1CCC[C@H]1C(=O)N1C[C@H](O)C[C@H]1C(=O)NCC(=O)N1CCC[C@H]1C(=O)N1C[C@H](O)C[C@H]1C(=O)NCC(=O)N[C@@H](CCCNC(=N)N)C(=O)N1C[C@H](O)C[C@H]1C(=O)NCC(=O)N[C@@H](CCCCN)C(=O)N[C@@H](CCCNC(=N)N)C(=O)NCC(=O)N[C@@H](CCCCN)C(=O)N[C@@H](CCC(N)=O)C(=O)NCC(=O)N[C@@H](CCC(N)=O)C(=O)N[C@@H](CCCCN)C(=O)NCC(=O)N1CCC[C@H]1C(=O)N1C[C@H](O)C[C@H]1C(=O)NCC(=O)N1CCC[C@H]1C(=O)N1C[C@H](O)C[C@H]1C(=O)NCC(=O)N1CCC[C@H]1C(=O)N1C[C@H](O)C[C@H]1C(=O)NCC(=O)N1CCC[C@H]1C(=O)N1C[C@H](O)C[C@H]1C(=O)NCC(N)=O` [AchE-P231 (r), Ac-GPO-GPO-GRO-GKR-GKQ-GQK-(GPO)4-G-NH2] (Ac-GP[Hyp]GP[Hyp]GR[Hyp]GKRGKQGQKGP[Hyp]GP[Hyp]GP[Hyp]GP[Hyp]G-NH2), in data set [1], the “Tm^obs” value turned out to be 23.9 °C. For the same molecule, in data set [2], the ΔTm is −1.9 °C.
Take `CC(=O)NCC(=O)N1CCC[C@H]1C(=O)N1C[C@H](O)C[C@H]1C(=O)NCC(=O)N[C@@H](CCCNC(=N)N)C(=O)N1C[C@H](O)C[C@H]1C(=O)NCC(=O)N[C@@H](CCCNC(=N)N)C(=O)N[C@@H](CCCNC(=N)N)C(=O)NCC(=O)N[C@@H](CCCNC(=N)N)C(=O)N1C[C@H](O)C[C@H]1C(=O)NCC(=O)N[C@@H](CC(C)C)C(=O)N[C@@H](CCCCN)C(=O)NCC(=O)N[C@@H](CCC(=O)O)C(=O)N[C@@H](CCC(N)=O)C(=O)NCC(=O)N1CCC[C@H]1C(=O)N1C[C@H](O)C[C@H]1C(=O)NCC(=O)N1CCC[C@H]1C(=O)N1C[C@H](O)C[C@H]1C(=O)NCC(=O)N1CCC[C@H]1C(=O)N1C[C@H](O)C[C@H]1C(=O)NCC(=O)N1CCC[C@H]1C(=O)N1C[C@H](O)C[C@H]1C(=O)NCC(=O)N[C@@H](Cc1ccc(O)cc1)C(N)=O` [C1qA-15, Ac-GPO-GRO-GRR-GRO-GLK-GEQ-(GPO)4-GY-NH2] (Ac-GP[Hyp]GR[Hyp]GRRGR[Hyp]GLKGEQGP[Hyp]GP[Hyp]GP[Hyp]GP[Hyp]GY-NH2): in data set [1], the “Tm^obs” value came to 23.3 °C. Further, the ΔTm in data set [2] was −7.4 °C.
In the case of `CC[C@H](C)[C@H](NC(=O)CNC(=O)[C@@H]1C[C@@H](O)CN1C(=O)[C@@H]1CCCN1C(=O)CNC(C)=O)C(=O)N[C@@H](CCCNC(=N)N)C(=O)NCC(=O)N1CCC[C@H]1C(=O)N[C@@H](CCCCN)C(=O)NCC(=O)N[C@@H](CCC(N)=O)C(=O)N[C@@H](CCCCN)C(=O)NCC(=O)N[C@@H](CCC(=O)O)C(=O)N1C[C@H](O)C[C@H]1C(=O)NCC(=O)N[C@@H](CC(C)C)C(=O)N1C[C@H](O)C[C@H]1C(=O)NCC(=O)N1CCC[C@H]1C(=O)N1C[C@H](O)C[C@H]1C(=O)NCC(=O)N1CCC[C@H]1C(=O)N1C[C@H](O)C[C@H]1C(=O)NCC(=O)N1CCC[C@H]1C(=O)N1C[C@H](O)C[C@H]1C(=O)NCC(=O)N1CCC[C@H]1C(=O)N1C[C@H](O)C[C@H]1C(=O)NCC(=O)N[C@@H](Cc1ccc(O)cc1)C(N)=O` [C1qC-67, Ac-GPO-GIR-GPK-GQK-GEO-GLO-(GPO)4-GY-NH2] (Ac-GP[Hyp]GIRGPKGQKGE[Hyp]GL[Hyp]GP[Hyp]GP[Hyp]GP[Hyp]GP[Hyp]GY-NH2), the “Tm^obs” value in data set [1] was determined as 28.4 °C. Also, the ΔTm in data set [2] was −1.4 °C.
The matching figures for `CC[C@H](C)[C@H](NC(=O)CNC(C)=O)C(=O)N[C@@H](CC(N)=O)C(=O)NCC(=O)N[C@@H](Cc1ccccc1)C(=O)N1C[C@H](O)C[C@H]1C(=O)NCC(=O)N[C@@H](CCCCN)C(=O)N[C@@H](CC(=O)O)C(=O)NCC(=O)N[C@@H](CCCNC(=N)N)C(=O)N[C@@H](CC(=O)O)C(=O)NCC(=O)N[C@H](C(=O)N[C@@H](CCCCN)C(=O)NCC(=O)N[C@@H](CCC(=O)O)C(=O)N[C@@H](CCCCN)C(=O)NCC(=O)N[C@@H](CCC(=O)O)C(=O)N1C[C@H](O)C[C@H]1C(=O)NCC(=O)N1CCC[C@H]1C(=O)N1C[C@H](O)C[C@H]1C(=O)NCC(=O)N1CCC[C@H]1C(=O)N1C[C@H](O)C[C@H]1C(=O)NCC(=O)N1CCC[C@H]1C(=O)N1C[C@H](O)C[C@H]1C(=O)NCC(=O)N1CCC[C@H]1C(=O)N1C[C@H](O)C[C@H]1C(=O)NCC(=O)NCC(N)=O)[C@@H](C)O` [MBL 42-61, Ac-GIN-GFO-GKD-GRD-GTK-GEK-GEO-(GPO)4-GG-NH2] (Ac-GINGF[Hyp]GKDGRDGTKGEKGE[Hyp]GP[Hyp]GP[Hyp]GP[Hyp]GP[Hyp]GG-NH2): 23.0 °C and −2.2 °C.
As for `CC(=O)NCC(=O)N1CCC[C@H]1C(=O)N1C[C@H](O)C[C@H]1C(=O)NCC(=O)N1CCC[C@H]1C(=O)N1C[C@H](O)C[C@H]1C(=O)NCC(=O)N1CCC[C@H]1C(=O)N1C[C@H](O)C[C@H]1C(=O)NCC(=O)N[C@@H](C)C(=O)N[C@@H](CCCCN)C(=O)NCC(=O)N[C@@H](CC(=O)O)C(=O)N[C@@H](C)C(=O)NCC(=O)N1CCC[C@H]1C(=O)N1C[C@H](O)C[C@H]1C(=O)NCC(=O)N1CCC[C@H]1C(=O)N[C@@H](C)C(=O)NCC(=O)N1CCC[C@H]1C(=O)N1C[C@H](O)C[C@H]1C(=O)NCC(=O)N1CCC[C@H]1C(=O)N1C[C@H](O)C[C@H]1C(=O)NCC(=O)N1CCC[C@H]1C(=O)N1C[C@H](O)C[C@H]1C(=O)NCC(=O)N[C@@H](Cc1ccc(O)cc1)C(N)=O` [T1-655, Ac-(GPO)3-GAK-GDA-GPO-GPA-(GPO)3-GY-NH2] (Ac-GP[Hyp]GP[Hyp]GP[Hyp]GAKGDAGP[Hyp]GPAGP[Hyp]GP[Hyp]GP[Hyp]GY-NH2), in data set [1], the “Tm^obs” value is 42.8 °C. For the same molecule, the ΔTm in data set [2] was 0.1 °C.
